Experimental findings from patent US8513260B2, “Pyrazinylpyrazoles” (Bayer CropScience AG, priority 2009, dated 2013) are described below.

For data set [1], the system named is green peach aphid (Myzus persicae). Nature of the data set: Myzus test (MYZUPE spray treatment). As to conditions: Myzus persicae, 144 h, Chinese cabbage discs, after 6 days, read-out: efficacy. The class given is in vivo. An outline of the steps:
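Chinese cabbage discs infested with all stages of Myzus persicae sprayed with active ingredient in acetone/dimethylformamide with alkylaryl polyglycol ether emulsifier, diluted in emulsifier-containing water to test concentration. Efficacy (% aphids killed) read after 6 days.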

Data set [2] has as its system adult Musca domestica. Nature of the data set: Musca domestica test. The format is in vivo. As to conditions: after 2 days. The protocol: Musca domestica Test Solvent: dimethyl sulphoxide To prepare an appropriate active ingredient formulation, 10 mg of active ingredient are mixed with 0.5 ml of dimethyl sulphoxide and the concentrate is diluted with water to the desired concentration. Vessels containing a sponge treated with the active ingredient preparation of the desired concentration are populated with adult Musca domestica. After 2 days, the kill in % is determined. 100% means that all of the flies have been killed; 0% means that none of the flies have been killed.

Data set [3] concerns Tick nymphs (Amblyomma hebraeum). Description: Amblyomma hebraeum test (AMBYHE). The format is in vivo. As to conditions: 100 ppm; immersed one minute; after 42 days. The protocol: Amblyomma hebraeum Test (AMBYHE) Solvent: dimethyl sulphoxide To prepare an appropriate active ingredient formulation, 10 mg of active ingredient are mixed with 0.5 ml of dimethyl sulphoxide and the concentrate is diluted with water to the desired concentration. Tick nymphs (Amblyomma hebraeum) are placed into perforated plastic beakers and immersed in the desired concentration for one minute. The ticks are transferred on filter paper into a Petri dish and stored in a climate-controlled cabinet. After 42 days, the kill in % is determined. 100% means that all of the ticks have been killed; 0% means that none of the ticks have been killed.

Data set [4] relates to adult engorged Boophilus microplus females of the SP-resistant Parkhurst strain. Description: Boophilus microplus (dip). The format is in vivo. The settings on record: Rhipicephalus microplus, 168 h, after 7 days, laying of fertile eggs, read-out: efficacy. The protocol: Boophilus microplus (dip)
Test animals: adult engorged Boophilus microplus females of the SP-resistant Parkhurst strain
Solvent: dimethyl sulphoxide
10 mg of active ingredient are dissolved in 0.5 ml of dimethyl sulphoxide. For the purpose of preparing a suitable formulation, the active ingredient solution is diluted with water to the concentration desired in each case. This active ingredient preparation is pipetted into tubes. 8-10 ticks are transferred into a further tube with holes. The tube is immersed into the active ingredient formulation, and all ticks are completely wetted. After the liquid has run out, the ticks are transferred onto filter discs in plastic dishes and stored in a climate-controlled room. The activity is assessed after 7 days by laying of fertile eggs. Eggs whose fertility is not outwardly visible are stored in glass tubes in a climate-controlled cabinet until the larvae hatch. Efficacy of 100% means that none of the ticks has laid any fertile eggs.

Data set [5] concerns Lucilia cuprina larvae. Nature of the data set: Lucilia cuprina test (LUCICU). The class given is in vivo. The settings on record: 48 h, treated horse meat, after 2 days, read-out: efficacy (kill). The protocol:
Lucilia cuprina Test (LUCICU) Solvent: dimethyl sulphoxide To prepare an appropriate active ingredient formulation, 10 mg of active ingredient are mixed with 0.5 ml of dimethyl sulphoxide and the concentrate is diluted with water to the desired concentration. Vessels containing horse meat treated with the active ingredient preparation of the desired concentration are populated with about 20 Lucilia cuprina larvae. After 2 days, the kill in % is determined. 100% means that all of the larvae have been killed; 0% means that none of the larvae have been killed.

Data set [6] is described as follows: logP by HPLC on reversed-phase columns (C 18), EEC Directive 79/831 Annex V.A8. The format is physicochemical. The settings on record: reversed-phase C18 HPLC column, pH 2.7, * LC-MS, acidic range pH 2.7, 0.1% aqueous formic acid and acetonitrile; read-out: log P. An excerpt:
[table] The calibration is effected with unbranched alkan-2-ones (having 3 to 16 carbon atoms) with known logP values (logP values determined on the basis of the retention times by linear interpolation between two successive alkanones).

Data set [7] has as its system caterpillars of the armyworm (Spodoptera frugiperda). Nature of the data set: Spodoptera frugiperda test (SPODFR spray treatment). The class given is in vivo. As to conditions: Spodoptera frugiperda, foliar, 168 h, maize leaf discs, after 7 days, read-out: efficacy. An outline of the steps: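 Maize leaf discs sprayed with the compound at the desired concentration, formulated in acetone/dimethylformamide with alkylaryl polyglycol ether emulsifier and diluted in water, then infested with armyworm caterpillars after drying. Efficacy read after 7 days as % caterpillars killed (100% = all dead, 0% = none).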

The test system of data set [8] is larvae of the mustard beetle (Phaedon cochleariae). Description: Phaedon test (PHAECO spray treatment). The format is in vivo. As to conditions: Phaedon cochleariae, 168 h, Chinese cabbage discs, after 7 days, read-out: efficacy. The method in brief:
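Chinese cabbage leaf discs were sprayed with compound formulated in acetone/dimethylformamide with alkylaryl polyglycol ether emulsifier and diluted in emulsifier-containing water. After drying, discs were populated with mustard beetle larvae. Efficacy (% larvae killed; 100% = all dead) was scored after 7 days.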

The subject of data set [9] is Boophilus microplus. Description: Boophilus microplus test (BOOPMI injection). The class given is in vivo. The settings on record: Rhipicephalus microplus, 168 h; 20 μg animal; injection into the abdomen; after 7 days, laying of fertile eggs; read-out: efficacy. The method in brief:
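Adult female ticks injected in the abdomen with active ingredient in DMSO, then held in a climate-controlled room. Efficacy (%) scored after 7 days from laying of fertile eggs, 100% meaning no tick laid fertile eggs.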

Data set [10] relates to unfed adult fleas (Ctenocephalides felis). Nature of the data set: Ctenocephalides felis test (CTECFE). The class given is in vivo. The settings on record: Ctenocephalides felis, 48 h; 100 ppm in citrated cow's blood; after 2 days; read-out: efficacy (kill). The protocol: Ctenocephalides felis Test ([…]) Solvent: 1 part by weight of dimethyl sulphoxide For the purpose of preparing an appropriate active ingredient formulation, 10 mg of active ingredient are mixed with 0.5 ml of dimethyl sulphoxide. A portion of the concentrate is diluted with citrated cow's blood and the desired concentration is established. About 20 unfed adult fleas (Ctenocephalides felis) are introduced into a chamber closed at the top and bottom with gauze. A metal cylinder, the bottom of which is closed with Parafilm, is placed onto the chamber. The cylinder contains the blood/active ingredient preparation, which can be imbibed by the fleas through the Parafilm membrane. After 2 days, the kill in % is determined. 100% means that all fleas have been killed; 0% means that none of the fleas have been killed.

Data set [11] relates to red spider mite (Tetranychus urticae). Description: Tetranychus test, OP-resistant (TETRUR spray treatment). The class given is in vivo. As to conditions: Tetranychus urticae, foliar, 144 h, 500 g/ha, bean leaf discs, after 6 days, read-out: efficacy. The method in brief: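 Bean leaf discs (Phaseolus vulgaris) infested with all mite stages were sprayed with active ingredient diluted in emulsifier-containing water at the desired concentration. Mortality read after 6 days as % efficacy, where 100% = all mites killed and 0% = none killed.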

On to `CCc1nn(-c2nccnc2OC)c(N)c1-c1cc(Cl)c2c(c1)OCO2` [Ex. 76], for which the results for the pest or weed control at 500 g/ha in data set [1], in [7] and in data set [8] were 80%, 83% and 100%, respectively. For the same compound, the “efficacy (kill)” value came out at 80% in data set [2] (100 ppm) and 100% in data set [3]. Moreover, the pest or weed control at 100 ppm in [4] amounted to 100%; in data set [5], 100%; in data set [10], 90%. Further, the chromatographic logP in data set [6] was 2.57. In addition, in data set [9], the pest or weed control at 0.02 mg came to 100%.

Turning to `COc1nccnc1-n1nc(C(F)(F)F)c(-c2cc(Cl)c3c(c2)OCO3)c1N` [Ex. 48], the pest or weed control at 500 g/ha in [1] was determined as 90%; in data set [7], 100%; in data set [8], 100%; in data set [11], 100%. The “efficacy (kill)” value is recorded as 90% in data set [2] (20 ppm) and 100% in [3]. In addition, the pest or weed control at 100 ppm in data set [4], in [5] and in data set [10] was 100% throughout. For the same compound, the chromatographic logP in data set [6] is 3.14. Moreover, in data set [9], the pest or weed control at 0.02 mg came to 100%.
